Values quoted from earlier work in patent US20130052262A1, “DABIGATRAN ETEXILATE-CONTAINING ORAL PHARMACEUTICAL COMPOSITION” (priority 2010, published 2013).

Settings: in the acidic environment

pH-dependent solubility: greatly increased
Structure (SMILES): CCCCCCOC(=O)NC(=N)c1ccc(NCc2nc3cc(C(=O)N(CCC(=O)OCC)c4ccccn4)ccc3n2C)cc1 [dabigatran etexilate, 3-[(2-{[4-(hexyloxycarbonylamino-imino-methyl)-phenylamino]-methyl}-1-methyl-1H-benzimidazole-5-carbonyl)-pyridine-2-yl-amino]-propionic acid ethyl ester]
